# Like-named read-outs stand apart in the source and are kept apart here.
# Assays:
# [1] = Biodistribution in rats (iv injection); assay type: in vivo; details: rat; for Blood uptake (blood assumed 7% of body weight) / Heart uptake / Kidney uptake / Liver uptake / Lung uptake / Muscle uptake (muscle assumed 40% of body weight) / Skin uptake / Spleen uptake / Thyroid uptake / Brain uptake: iv
# Protocol: While under ether anesthesia, each rat was injected in the femoral vein with 0.2 mL saline solution containing [^123 I]I-TBZ (1-5uCi) either racemic mixture, peak-A or peak-B. The rats were sacrificed at various time points postinjection by cardiac excision. The tissues were weighed and the radioactivity was measured with a Canberra gamma counter (Model 5000). The percent dose per organ was calculated by a comparison of the tissue counts to suitably diluted aliquots of the injected material. Total activities of blood and muscle were calculated assuming that they were 7% and 40% of total body weight, respectively Results are presented in Tables 3, 4A and 4B.
# [2] = Stability of radiolabeled compound at room temperature; assay type: physicochemical
# Protocol: The […] labeled iodovinYl-TBZ derivative ([^123 I]-TBZ, 2b) was prepared by an iododestannylation reaction. Aqueous hydrogen peroxide (1 mg/mL EtOH), 200 uL of 0.1 N HCl and 5 mCi [^123 I]sodium iodide were combined in a sealed vial. The reaction was allowed to proceed at room temperature for 20 min, after which it was terminated by addition of 0.1 mL sodium bisulfite (300 mg/ml). The reaction was then neutralized with NaHCO3 and extracted with ethyl acetate (3×1 mL). The combined organic layers were dried under nitrogen and the desired product was purified through HPLC on a reverse phase column (PRP-1, Hamilton) eluting with a isocratic solvent of 90% acetonitrile-10% buffer (5 mM 3,3'-dimethylglutaric acid, pH 7.0) and a flow rate of 1 mL/min. The radiochemical purity was analyzed by the above chromatographic system and the purified [^123 I] product (yield 50%, purity >98%) was obtained for animal experiments. The radiolabeled [^123 I]I-TBZ is stable at room temperature for up to 15 h.
# [3] = Regional brain distribution in rats (dissection, iv injection); assay type: in vivo; details: for Regional brain uptake, cerebellum / Regional brain uptake, cortex / Regional brain uptake, hippocampus / Regional brain uptake, striatum / tissue uptake at 2 min / tissue uptake at 0.5 h / tissue uptake at 4 h / tissue uptake at 6 h / tissue uptake at 16 h: rat; for tissue uptake at 0.5 h: 30 min; for tissue uptake at 4 h: 240 min; for tissue uptake at 6 h: 2 rats only
# Protocol: Regional brain distribution of [^123 I]I-TBZ (with either a racemic mixture, peak A or B) in rats was obtained after an iv injection. By dissecting, weighing and counting samples from different brain regions (cortex, striatum, hippocampus and cerebellum), % dose/gram of the samples was calculated by comparing the sample counts with the counts of the diluted initial dose. The ratio of uptake in each region was obtained by dividing % dose/gram of each region with that of the cerebellum. The effect of tetrahydrobenazine on the uptake of peak A or peak B was investigated by pretreating the rats with the TBZ 3 mg/rat at 3 min before iv injection of [^123 I]I-TBZ. At 20 min. post injection the rats were dissected and the regional brain dissection was carried out as above.
# [4] = system: monoamine uptake-storage mechanism of amine granules in the synapse; details: in vivo; cited from earlier work
# [5] = up to 300 mg daily, several trials; cited from earlier work
# [6] = system: monoamine transporter of chromaffin granules and CNS synaptic vesicles; details: cited from earlier work
# [7] = cerebellum, read-out: Regional brain uptake, cerebellum
# [8] = cortex, read-out: Regional brain uptake, cortex
# [9] = hippocampus, read-out: Regional brain uptake, hippocampus
# [10] = striatum, read-out: Regional brain uptake, striatum
smiles,measurement,setting,value
COc1cc2c(cc1OC)C1CC(O)(C=C[123I])C(CC(C)C)CN1CC2 (racemic) [Compound 2b],Crossing of the intact blood brain barrier and localization in the brain (in words),[1],can cross the intact blood brain barrier and localize in the brain
same,Blood uptake (blood assumed 7% of body weight),[1]; 2 min,5.99 ± 2.54 % Dose/organ
same,Heart uptake,[1]; 2 min,1.33 ± 0.19 % Dose/organ
same,Kidney uptake,[1]; 2 min,4.18 ± 0.46 % Dose/organ
same,Liver uptake,[1]; 2 min,11.1 ± 1.22 % Dose/organ
same,Lung uptake,[1]; 2 min,4.44 ± 1.44 % Dose/organ
same,Muscle uptake (muscle assumed 40% of body weight),[1]; 2 min,6.93 ± 0.12 % Dose/organ
same,Skin uptake,[1]; 2 min,4.08 ± 2.32 % Dose/organ
same,Spleen uptake,[1]; 2 min,0.28 ± 0.04 % Dose/organ
same,Thyroid uptake,[1]; 2 min,0.06 ± 0.02 % Dose/organ
same,Brain uptake,"[1]; 2 min, listed as [^123 I]I-TBZ (2b)",0.92 % Dose/organ
same,Brain uptake,"[1]; 2 min, listed as [^123 I]I-TBZ racemic mixture",0.92 ± 0.13 % Dose/organ
same,Blood uptake (blood assumed 7% of body weight),[1]; 30 min,1.84 ± 0.17 % Dose/organ
same,Heart uptake,[1]; 30 min,0.34 ± 0.02 % Dose/organ
same,Kidney uptake,[1]; 30 min,1.55 ± 0.21 % Dose/organ
same,Liver uptake,[1]; 30 min,9.75 ± 1.83 % Dose/organ
same,Lung uptake,[1]; 30 min,1.02 ± 0.14 % Dose/organ
same,Muscle uptake (muscle assumed 40% of body weight),[1]; 30 min,20.18 ± 2.19 % Dose/organ
same,Skin uptake,[1]; 30 min,11.53 ± 2.54 % Dose/organ
same,Spleen uptake,[1]; 30 min,0.29 ± 0.03 % Dose/organ
same,Thyroid uptake,[1]; 30 min,0.03 ± 0.005 % Dose/organ
same,Brain uptake,"[1]; 30 min, listed as [^123 I]I-TBZ (2b)",0.36 % Dose/organ
same,Brain uptake,"[1]; 30 min, listed as [^123 I]I-TBZ racemic mixture",0.36 ± 0.05 % Dose/organ
same,Blood uptake (blood assumed 7% of body weight),[1]; 60 min,2.46 ± 0.56 % Dose/organ
same,Brain uptake,[1]; 60 min,0.28 ± 0.05 % Dose/organ
same,Heart uptake,[1]; 60 min,0.35 ± 0.06 % Dose/organ
same,Kidney uptake,[1]; 60 min,1.47 ± 0.22 % Dose/organ
same,Liver uptake,[1]; 60 min,8.57 ± 0.41 % Dose/organ
same,Lung uptake,[1]; 60 min,1.47 ± 0.64 % Dose/organ
same,Muscle uptake (muscle assumed 40% of body weight),[1]; 60 min,14.9 ± 1.77 % Dose/organ
same,Skin uptake,[1]; 60 min,6.39 ± 2.37 % Dose/organ
same,Spleen uptake,[1]; 60 min,0.37 ± 0.10 % Dose/organ
same,Thyroid uptake,[1]; 60 min,0.05 ± 0.002 % Dose/organ
same,Blood uptake (blood assumed 7% of body weight),[1]; 120 min,2.16 ± 0.21 % Dose/organ
same,Brain uptake,[1]; 120 min,0.16 ± 0.03 % Dose/organ
same,Heart uptake,[1]; 120 min,0.24 ± 0.06 % Dose/organ
same,Kidney uptake,[1]; 120 min,0.97 ± 0.13 % Dose/organ
same,Liver uptake,[1]; 120 min,6.71 ± 0.84 % Dose/organ
same,Lung uptake,[1]; 120 min,0.78 ± 0.43 % Dose/organ
same,Muscle uptake (muscle assumed 40% of body weight),[1]; 120 min,15.4 ± 4.17 % Dose/organ
same,Skin uptake,[1]; 120 min,7.05 ± 1.52 % Dose/organ
same,Spleen uptake,[1]; 120 min,0.20 ± 0.06 % Dose/organ
same,Thyroid uptake,[1]; 120 min,0.08 ± 0.05 % Dose/organ
same,Blood uptake (blood assumed 7% of body weight),[1]; 240 min,1.82 ± 0.26 % Dose/organ
same,Brain uptake,[1]; 240 min,0.13 ± 0.04 % Dose/organ
same,Heart uptake,[1]; 240 min,0.18 ± 0.03 % Dose/organ
same,Kidney uptake,[1]; 240 min,0.73 ± 0.13 % Dose/organ
same,Liver uptake,[1]; 240 min,4.57 ± 0.69 % Dose/organ
same,Lung uptake,[1]; 240 min,0.54 ± 0.09 % Dose/organ
same,Muscle uptake (muscle assumed 40% of body weight),[1]; 240 min,11.24 ± 2.57 % Dose/organ
same,Skin uptake,[1]; 240 min,4.21 ± 0.25 % Dose/organ
same,Spleen uptake,[1]; 240 min,0.18 ± 0.02 % Dose/organ
same,Thyroid uptake,[1]; 240 min,0.15 ± 0.18 % Dose/organ
same,Blood uptake (blood assumed 7% of body weight),"[1]; 6 hr, 2 rats only",1.58 ± 0.15 % Dose/organ
same,Brain uptake,"[1]; 6 hr, 2 rats only",0.05 ± 0.001 % Dose/organ
same,Heart uptake,"[1]; 6 hr, 2 rats only",0.11 ± 0.01 % Dose/organ
same,Kidney uptake,"[1]; 6 hr, 2 rats only",0.45 ± 0.03 % Dose/organ
same,Liver uptake,"[1]; 6 hr, 2 rats only",3.21 ± 0.28 % Dose/organ
same,Lung uptake,"[1]; 6 hr, 2 rats only",0.36 % Dose/organ
same,Muscle uptake (muscle assumed 40% of body weight),"[1]; 6 hr, 2 rats only",6.94 ± 0.93 % Dose/organ
same,Skin uptake,"[1]; 6 hr, 2 rats only",4.15 ± 0.63 % Dose/organ
same,Spleen uptake,"[1]; 6 hr, 2 rats only",0.11 ± 0.004 % Dose/organ
same,Thyroid uptake,"[1]; 6 hr, 2 rats only",0.42 ± 0.15 % Dose/organ
same,Blood uptake (blood assumed 7% of body weight),[1]; 16 hr,0.42 ± 0.07 % Dose/organ
same,Brain uptake,[1]; 16 hr,0.008 ± 0.001 % Dose/organ
same,Heart uptake,[1]; 16 hr,0.02 ± 0.003 % Dose/organ
same,Kidney uptake,[1]; 16 hr,0.12 ± 0.015 % Dose/organ
same,Liver uptake,[1]; 16 hr,1.32 ± 0.096 % Dose/organ
same,Lung uptake,[1]; 16 hr,0.07 ± 0.006 % Dose/organ
same,Muscle uptake (muscle assumed 40% of body weight),[1]; 16 hr,1.49 ± 0.23 % Dose/organ
same,Skin uptake,[1]; 16 hr,2.04 ± 0.18 % Dose/organ
same,Spleen uptake,[1]; 16 hr,0.02 ± 0.002 % Dose/organ
same,Thyroid uptake,[1]; 16 hr,0.009 ± 0.004 % Dose/organ
same,Stable at room temperature for up to,[2],up to 15 h
same,Regional distribution / selectivity in rat brain (in words),[3]; listed as [^123 I]-2b,did not exhibit any selectivity
same,Regional distribution / selectivity in rat brain (in words),[3]; listed as [^123 I]I-TBZ (2b),exhibits no regional selectivity
same,"Regional brain uptake, cerebellum",[3]; 60 min,0.14 ± 0.04 % Dose/g
same,"Regional brain uptake, cortex",[3]; 60 min,0.14 ± 0.04 % Dose/g
same,"Regional brain uptake, hippocampus",[3]; 60 min,0.14 ± 0.02 % Dose/g
same,"Regional brain uptake, striatum",[3]; 60 min,0.15 ± 0.03 % Dose/g
same,"Regional brain uptake, cerebellum",[3]; 120 min,0.14 ± 0.003 % Dose/g
same,"Regional brain uptake, cortex",[3]; 120 min,0.15 ± 0.09 % Dose/g
same,"Regional brain uptake, hippocampus",[3]; 120 min,0.12 ± 0.04 % Dose/g
same,"Regional brain uptake, striatum",[3]; 120 min,0.12 ± 0.04 % Dose/g
same,tissue uptake at 2 min,[3]; [7],0.5 ± 0.13 %ID/g
same,tissue uptake at 0.5 h,[3]; [7],0.17 ± 0.03 %ID/g
same,tissue uptake at 4 h,[3]; [7],0.051 ± 0.014 %ID/g
same,tissue uptake at 6 h,[3]; [7],0.025 ± 0.0002 %ID/g
same,tissue uptake at 16 h,[3]; [7],0.0063 ± 0.001 %ID/g
same,tissue uptake at 2 min,[3]; [8],0.55 ± 0.24 %ID/g
same,tissue uptake at 0.5 h,[3]; [8],0.2 ± 0.02 %ID/g
same,tissue uptake at 4 h,[3]; [8],0.052 ± 0.021 %ID/g
same,tissue uptake at 6 h,[3]; [8],0.022 %ID/g
same,tissue uptake at 16 h,[3]; [8],0.0061 ± 0.0013 %ID/g
same,tissue uptake at 2 min,[3]; [9],0.58 ± 0.16 %ID/g
same,tissue uptake at 0.5 h,[3]; [9],0.21 ± 0.02 %ID/g
same,tissue uptake at 4 h,[3]; [9],0.048 ± 0.015 %ID/g
same,tissue uptake at 6 h,[3]; [9],0.028 ± 0.0064 %ID/g
same,tissue uptake at 16 h,[3]; [9],0.0051 ± 0.002 %ID/g
same,tissue uptake at 2 min,[3]; [10],0.54 ± 0.21 %ID/g
same,tissue uptake at 0.5 h,[3]; [10],0.21 ± 0.006 %ID/g
same,tissue uptake at 4 h,[3]; [10],0.056 ± 0.014 %ID/g
same,tissue uptake at 6 h,[3]; [10],0.024 ± 0.0029 %ID/g
same,tissue uptake at 16 h,[3]; [10],0.0062 ± 0.0026 %ID/g
COC(=O)[C@H]1[C@H]2C[C@@H]3c4[nH]c5cc(OC)ccc5c4CCN3C[C@H]2C[C@@H](OC(=O)c2cc(OC)c(OC)c(OC)c2)[C@@H]1OC [Reserpine],Irreversible damage to storage mechanism / neurons (in words),[4],the storage mechanism is irreversibly damaged
"COc1cc2c(cc1OC)C1CC(=O)C(CC(C)C)CN1CC2 (stereo not shown) [TBZ, 3-(2-methylpropyl)-9,10-dimethoxy-1,3,4,6,7,11b-hexahydro-2H-benzo[a]quinolizin-2-one]",Duration of depletion of catecholamines and serotonin in the brain (in words),[4],shorter duration
same,Irreversible damage to storage mechanism / neurons (in words),[4],do not cause irreversible damage to neurons
same,Effect on tardive dyskinesia in patients (in words),[5],improved tardive dyskinesia
COc1cc2c(cc1OC)C1CC(OC(C)=O)C(CC(C)C)CN1CC2 (stereo not shown) [acetyl derivative of dihydro-TBZ],binding affinity for the transporter (in words),[6],retain high affinity

# From patent US5278308A, “Iodine derivatives of tetrabenazine” (The Trustees of The University of Pennsylvania, priority 1992, dated 1994)
